{"source": "patent US20230263746A1", "about": "“Synergistic Polyamine Combinations And Methods Therefor” (Compound Solutions Inc., priority 2022, published 2023)", "key": {"wildtype C. elegans [1]": {"test_system": "wildtype C. elegans", "assay": "Locomotor activity (healthspan) scoring in C. elegans with respect to age", "assay_type": "in vivo", "from_the_text": "FIG. 7 depicts a method of scoring locomotor activity in C. elegans wherein the animal's displacement from a fixed boundary determines an activity score. […] Using C. elegans as test subjects, this measurement can be accomplished by assigning each animal a digitally fixed boundary and observing each animal's displacement from that boundary. […] An additional control group was given no treatment. All groups were loaded into chips at the L4-stage. From the 1st day of adulthood, the animals were switched to heat-killed OP50 plus the appropriate compound. The displacement of each animal from its assigned fixed boundary determined an activity score."}, "wildtype C. elegans [2]": {"test_system": "wildtype C. elegans", "assay": "Lifespan in a C. elegans model", "assay_type": "in vivo", "conditions": "for effect on lifespan compared to control: 100 μM resveratrol, 500 μM NMN, 20 μg/mL spermidine, 6 μg/mL spermine, or 20 μg/mL spermidine with 6 μg/mL spermine, scored daily until all animals dead; for fraction of live organisms at the same date compared to control: at and after day 12 (latter third in life), FIG. 4", "from_the_text": "One physiological marker found to be beneficially and synergistically modulated by the compositions presented herein is lifespan. […] An additional control group was given no treatment. All groups were loaded into chips at the L4-stage. From the 1st day of adulthood, the animals were switched to heat-killed OP50 plus the appropriate compound. Chips were scored daily until all animals were dead."}, "[3]": {"conditions": "days 10 and 12 of animal life, 100 μM resveratrol, 500 μM NMN"}}, "note": "“Also recorded” adds a separate entry of the source."}
{"smiles": "NCCCCNCCCN", "note": "[spermidine]", "values": [{"measurement": "locomotor activity compared to untreated/wildtype", "setting": "wildtype C. elegans [1]; with respect to age (all ages scored), 20 μg/mL spermidine", "value": "do not show statistically significant difference in activity levels compared to wildtype C. elegans; also recorded: did not show any significant difference in activity levels compared to the untreated group"}, {"measurement": "effect on lifespan compared to control", "setting": "wildtype C. elegans [2]", "value": "weakest effect on lifespan, yet still significant; also recorded: slight lifespan extension compared to the untreated group"}, {"measurement": "fraction of live organisms at the same date compared to control", "setting": "wildtype C. elegans [2]", "value": "increased over control"}]}
{"smiles": "Oc1ccc(C=Cc2cc(O)cc(O)c2)cc1", "note": "[resveratrol, reference compound]", "values": [{"measurement": "locomotor activity compared to untreated/wildtype", "setting": "wildtype C. elegans [1]; [3]", "value": "remain more active than the wildtype C. elegans; also recorded: significantly higher levels of activity than untreated groups"}, {"measurement": "effect on lifespan compared to control", "setting": "wildtype C. elegans [2]", "value": "strongest increase to lifespan compared to control"}]}
{"smiles": "NC(=O)c1ccc[n+]([C@@H]2O[C@H](COP(=O)([O-])O)[C@@H](O)[C@H]2O)c1", "note": "[NMN, nicotinamide mononucleotide, reference compound]", "values": [{"measurement": "locomotor activity compared to untreated/wildtype", "setting": "wildtype C. elegans [1]; [3]", "value": "significantly higher levels of activity than the wildtype C. elegans; also recorded: significantly higher levels of activity than untreated groups"}, {"measurement": "effect on lifespan compared to control", "setting": "wildtype C. elegans [2]", "value": "strongest increase to lifespan compared to control"}]}
{"smiles": "NCCCNCCCCNCCCN", "note": "[spermine]", "values": [{"measurement": "locomotor activity compared to untreated/wildtype", "setting": "wildtype C. elegans [1]; day 8 of animal life, 6 μg/mL spermine", "value": "significantly more activity; also recorded: significant differences in activity levels compared to the untreated group"}, {"measurement": "locomotor activity compared to untreated/wildtype", "setting": "wildtype C. elegans [1]; later ages (after day 8), 6 μg/mL spermine", "value": "does not seem to persist significantly into later ages; also recorded: did not persist into later ages"}, {"measurement": "effect on lifespan compared to control", "setting": "wildtype C. elegans [2]", "value": "significant effects on lifespan"}, {"measurement": "fraction of live organisms at the same date compared to control", "setting": "wildtype C. elegans [2]", "value": "increased over control"}]}
